From patent US20140037630A1, “METHODS FOR TREATING MICA-RELATED DISORDERS” (DANA-FARBER CANCER INSTITUTE, INC., priority 2006, published 2014) come the findings set out here.

The subject of test [1] is U226 MM cells. In words: Surface MICA expression by flow cytometry in U226 MM cells. The class given is cell-based. As to conditions: 20 μM Bortezomib overnight. The procedure: (§1) PBMCs and bone marrow aspirates were processed by Ficoll-Hypaque (Pharmacia) density-gradient centrifugation. PBMCs from healthy donors or patients were incubated for 48 hours in patient or control sera (10%) in complete media and stained with PE-conjugated anti-NKG2D mAb (Pharmingen), FITC-conjugated anti-CD3 mAb (BD-Biosciences Pharmingen), and either PC5-conjugated anti-CD8 mAb or PC5-conjugated anti-CD56 mAb (Beckman-Coulter). In Examples 9-11, antibodies used, in addition to the above, were: FITC-conjugated anti-CD138, PE-conjugated anti-MICA mAb (R&D Systems), and anti-ERp5 (Axxora Platform) followed by FITC-conjugated anti-rabbit (Southern Biotech). Cells were analyzed with a FW501 flow cytometer (Beckman-Coulter) and FlowJo software (Tree Star). Cells were gated for CD3^+CD8^+ T cells and CD3^−CD56^+ NK cells. […] Cells were analyzed with a FACScan cytometer (Becton Dickinson). […]
(§2) For the experiment shown in FIG. 16B, the indicated MM cells were treated with 20 μM Bortezomib overnight and surface MICA expression was determined with flow cytometry. […] IFN-γ production was measured by ELISPOT against dendritic cells loaded with U226 MM cells. […]

Test [2] has as its system U226 MM cells. As to the kind of experiment: Immunoblotting for DNA damage response (phospho-ATM, phospho-chk-2) in U226 MM cells. The class given is cell-based. Here is the method:
(§3) Antibodies used for immunoblotting were: anti-phospho-ATM (ser 1981), anti-ATM, anti-phospho-ATR (ser 428), anti-ATR, anti-phospho-chk-1 (ser 280) and anti-phospho-chk-2 (thr 68) (Cell Signaling, Beverly, Mass.). Immunoblotting was performed according to standard methods. In some experiments, U226 cells were transiently transfected with expression plasmids encoding human chk-1 shRNA (5′-[…]-3′) (SEQ ID NO: 1), chk-2 shRNA, or ATM shRNA (Upstate cell signaling, Lake Placid, N.Y.) according to the manufacturer's instructions. The efficiency of gene knockdown was 50%-90% as assessed by immunoblotting.
(§4) U226, RPMI, and MM-1R cells were obtained from the American Type Culture Collection (Manassas, Va.), and MM-1S cells were a gift of Dr. Steven Rosen (Northwestern University). […] U226-MICA cells were generated with retroviral mediated gene transfer according to standard methods.
(§5) The effect of the proteasome inhibitor Bortezomib, a MM therapeutic, on MICA expression and the DNA damage response pathway was analyzed. U226 and RPMI-8226 MM cells were treated with 20 μM Bortezomib, 250 μg/ml dexamethasone or 10 μg/ml aphidicolin (a DNA polymerase inhibitor that served as a control for inducing DNA damage) for the indicated times. Cell lysates were prepared and evaluated for phospho-ATM (ser 1981), ATM, phospho-chk-2 (thr 68) or chk-2 by immunoblotting. […]

The test system of another test is MM-1S cells. In words: Immunoblotting for phospho-ATM and total ATM in MM-1S cells. The class given is cell-based. As to conditions: 10 μM Bortezomib. The procedure: as §3, §4, §5
For test [3], the system named is U226 MM cells. In words: Dendritic cell cross-presentation of MGUS sera-coated treated U226 MM cells, IFN-γ ELISPOT of CD8+ T cells. The class given is cell-based. Particulars: drug treated U226 MM cells coated with MGUS sera; CD8+ T cells stimulated seven days. The procedure: Donor peripheral blood mononuclear cells (PBMCs) were incubated in 10% patient sera as described above, and NK cells, isolated by magnetic cell sorting (Miltenyl Biotech), were tested in four-hour lysis assays against ^51Cr-labeled K562 target cells. The spontaneous release in all assays was less than 20% of the maximum. Dendritic cells (generated from adherent PBMCs with GM-CSF and IL-4) were co-cultured with opsonized tumor cells (1:1 ratio) for 20 hours, matured with LPS (Sigma-Aldrich) for 24 hours, and then used to stimulate autologous CD8+ T cells, isolated by magnetic cell sorting, for seven days. Antigen specific IFN-γ production was then determined by ELISPOT. For enzyme-linked immunospot (ELISPOT) analysis, ImmunoSpotplates (Cellular Technology) were coated overnight at 37° C. with 10 μg/ml anti-IFN-γ mAb (Mabtech). […] Spots were developed by using BCIP/NBT as a color development substrate and counted with an ImmunoSpot microplate reader (Cellular Technology, Cleveland).
as §2

The subject of the next test is MM-1R MM cells. As to the kind of experiment: Surface MICA expression by flow cytometry in MM-1R MM cells. As to conditions: 20 μM Bortezomib overnight. The class given is cell-based. Here is the method:
as §1, §2

In a further test the test system is RPMI-8226 MM cells. In words: Immunoblotting for DNA damage response (phospho-ATM, phospho-chk-2) in RPMI-8226 MM cells. The class given is cell-based. Particulars: 20 μM Bortezomib or 250 μg/ml dexamethasone. The procedure:
as §3, §4, §5

In another test the test system is MICA. As to the kind of experiment: Anti-MICA antibody ELISA with recombinant MICA protein on longitudinal patient sera. The class given is in vivo, human. As to conditions: patient MEL15; sera diluted 1:500. Here is the method: (§6) Anti-MICA antibodies and sMICA levels were measured with ELISAs using recombinant MICA protein (ProSpec-Tany TechnoGene Inc.) and anti-human MICA monoclonal antibodies (R&D Systems). The lower limits of the assay were 90 pg/ml. The Wilcoxon rank sum test with no adjustments for multiple comparisons was used to analyze the differences among the normal donors, MGUS, and MM patients. For complement assays, 293T and 293-T-MICA cells, generated by retroviral mediated gene transfer were incubated with patient sera and human complement (Sigma-Aldrich) and lysis quantified using MTT (Roche Diagnostic GmbH).
The humoral response to MICA was analyzed by an ELISA with recombinant MICA protein as described in Example 1. Longitudinal sera samples from MEL15 were diluted 1:500. Downward arrows denote tumor cell vaccinations and upward arrows depict infusions of MDX-010.
Patient M37 entered study with visceral melanoma metastases, which were completely resected for vaccine manufacture. […] Subsequent isolated recurrences were processed into additional vaccines, whereas the patient succumbed to progressive disease 4.5 years after study entry.

Another test has as its system sMICA. In words: sMICA ELISA on longitudinal MEL15 sera. The class given is in vivo, human. Particulars: patient MEL15 sera. Here is the method: as §6
Soluble MICA (sMICA) levels were also analyzed. […] The reduction in sMICA was confirmed with immunoblotting analysis of MEL15 sera using an anti-MICA monoclonal antibody.

As for `CC(C)C[C@H](NC(=O)[C@H](Cc1ccccc1)NC(=O)c1cnccn1)B(O)O` [Bortezomib], the “surface expression of MICA” value with U226 MM cells [1] and in the test on MM-1R MM cells was “increased the surface expression of MICA” each time. Also, the “ATM phosphorylation (ser 1981)” value with U226 MM cells [2] (10 μM Bortezomib) was “induced ATM phosphorylation”. Further, the “phosphorylation of ATM (ser 1981) and chk-2 (thr 68)” value in the test with U226 MM cells [2] (20 μM Bortezomib or 250 μg/ml dexamethasone) is “triggered the rapid phosphorylation”; in the test on RPMI-8226 MM cells, “but not RPMI MM cells”. The “ATM (total ATM, immunoblot)” value in the test on MM-1S cells is listed as “stimulated the degradation of ATM”. Further, the “dendritic cell cross-presentation of treated U226 cells by MGUS sera (IFN-γ ELISPOT)” value in the test on U226 MM cells [3] is listed as “as efficiently as U226-MICA cells”.
Regarding “MDX-010: fully human anti-CTLA-4 blocking monoclonal antibody”, the anti-MICA antibody titers result in the test with MICA is recorded as “elevated levels of anti-MICA antibodies”. The sMICA levels entry in the test with sMICA is given as “sharp decrease”.
